Measured values taken from patent US20240382502A1, “COMPOSITIONS AND METHODS FOR DEEP DERMAL DRUG DELIVERY” (ARCUTIS BIOTHERAPEUTICS, INC., priority 2020, published 2024).

Columns and labels:
[1] = Particle size distribution by laser diffraction; type: physicochemical; details: SHR0302 used in Example 1, Malvern Hydro MV, ethyl acetate dispersion
Description: In the pharmaceutical compositions of the present invention, the active ingredient is present as small particles. Particle size of the drug can be assessed using laser diffraction methods. Laser diffraction is recognized by standards and guidance agencies including ISO and ASTM and is widely used to determine particle size distributions. In conducting the assessment, the sample is passed through a laser beam, which results in laser light scattered at a range of angles. Detectors placed at fixed angles measure the intensity of light scattered at that position. A mathematical model is then applied to generate a particle size distribution. The particle size values reported herein are determined by using a liquid or wet dispersion method.
In particle size determinations, the median value is defined as the value where half of the population resides above this point, and half resides below this point. For particle size distributions the median is called the D50. The D50 is the size that splits the distribution with half above and half below this diameter. The distribution width may also be characterized by citing one, two or three values on the x-axis, typically some combination of the D10, D50, and D90. The D50, the median, has been defined above as the diameter where half of the population lies below this value. Similarly, 90 percent of the distribution lies below the D90, and 10 percent of the population lies below the D10.
A pharmaceutical composition comprising 3% SHR0302 suspended in dimethicone was prepared. The primary particle size distribution of the SHR0302 is characterized by a D10 value of less than about 0.25 μm; a D50 value of less than about 0.7 μm; and a D90 value of less than about 5 μm. The pharmaceutical composition was a transparent solution due to the particles being too small to scatter visible light. A Malvern Metasizer Model 3000 using the Hydro MV dispersion unit was used to determine the particle size distribution profile of SHR0302. […]

JAK1 = JAK1 (Homo sapiens, UniProt P23458); details: in words; cited from earlier work
Chain of JAK1 (P23458 whole entry): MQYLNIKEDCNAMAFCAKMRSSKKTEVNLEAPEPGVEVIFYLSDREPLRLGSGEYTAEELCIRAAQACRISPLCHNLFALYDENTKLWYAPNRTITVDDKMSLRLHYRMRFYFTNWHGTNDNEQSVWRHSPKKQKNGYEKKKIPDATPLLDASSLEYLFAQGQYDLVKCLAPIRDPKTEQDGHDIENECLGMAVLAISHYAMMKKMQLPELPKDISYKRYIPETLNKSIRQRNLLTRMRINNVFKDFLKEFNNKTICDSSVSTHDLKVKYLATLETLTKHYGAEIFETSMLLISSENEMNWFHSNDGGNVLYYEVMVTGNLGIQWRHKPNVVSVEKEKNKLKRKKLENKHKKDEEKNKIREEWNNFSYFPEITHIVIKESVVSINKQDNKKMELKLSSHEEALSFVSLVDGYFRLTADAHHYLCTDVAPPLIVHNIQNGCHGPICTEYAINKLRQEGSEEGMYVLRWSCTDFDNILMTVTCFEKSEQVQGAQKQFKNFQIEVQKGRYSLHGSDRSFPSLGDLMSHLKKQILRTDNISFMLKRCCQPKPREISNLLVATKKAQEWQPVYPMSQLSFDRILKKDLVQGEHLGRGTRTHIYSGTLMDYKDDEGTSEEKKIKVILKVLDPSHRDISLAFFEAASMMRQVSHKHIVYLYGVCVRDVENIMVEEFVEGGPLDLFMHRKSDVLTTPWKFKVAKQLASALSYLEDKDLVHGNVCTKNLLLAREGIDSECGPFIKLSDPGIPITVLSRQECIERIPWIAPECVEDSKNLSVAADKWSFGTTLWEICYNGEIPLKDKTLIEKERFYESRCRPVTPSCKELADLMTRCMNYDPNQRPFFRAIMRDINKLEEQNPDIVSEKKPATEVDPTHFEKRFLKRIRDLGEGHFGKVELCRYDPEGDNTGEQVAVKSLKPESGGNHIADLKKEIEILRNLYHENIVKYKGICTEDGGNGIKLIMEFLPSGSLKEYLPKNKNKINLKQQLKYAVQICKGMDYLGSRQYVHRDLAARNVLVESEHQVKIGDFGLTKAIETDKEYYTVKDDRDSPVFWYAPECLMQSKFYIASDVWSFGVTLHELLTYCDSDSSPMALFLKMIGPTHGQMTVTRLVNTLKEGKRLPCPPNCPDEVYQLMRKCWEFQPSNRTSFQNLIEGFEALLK

[2] = orally administered, women; cited from earlier work

| primary particle size distribution D10 [1] | primary particle size distribution D50 [1] | primary particle size distribution D90 [1] | SMILES | inhibition of JAK1 (JAK1) | selectivity for JAK1 over JAK2 (JAK1) | efficacy in treatment of acne [2] |
| --- | --- | --- | --- | --- | --- | --- |
| less than 0.25 μm | less than 0.7 μm | less than 5 μm | COc1nsc(NC(=O)N2C[C@H]3C[C@H](N(C)c4ncnc5[nH]ccc45)C[C@H]3C2)n1 [SHR0302, (3aR,5S,6aS)-N-(3-methoxyl-1,2,4-thiadiazol-5-yl)-5-(methyl(7H-pyrrolo[2,3-d]pyrimidin-4-yl)amino)hexahydrocyclopenta[c]pyrrole-2(1H)-carboxamide] | potent | high selectively for JAK1 over JAK2 | – |
| – | – | – | CC(=O)S[C@@H]1CC2=CC(=O)CC[C@]2(C)[C@H]2CC[C@@]3(C)[C@@H](CC[C@@]34CCC(=O)O4)[C@H]12 [spironolactone, 17-hydroxy-7α-mercapto-3-oxo-17α-pregn-4-ene-21-carboxylic acid γ-lactone acetate] | – | – | efficacious |
